Where “and” joins values, the source holds several entries; their conditions need not be identical. Identical values can stand only once. Blank lines part the entries; values can stand above or below the molecule they belong to.
Assays:
[1] = Chemical stability of dexbudesonide HFA 227 compositions of Example 5 in anodised aluminium cans (HPLC, epimeric distribution); format: physicochemical; conditions: for % Residual dexbudesonide / % residual dexbudesonide relative to t = 0: HFA 227, anodised aluminium cans
Protocol: Compositions containing 7.2, 12, 16.8 mg of dexbudesonide (corresponding to 30, 50 and 70 μg/dose respectively), ethanol, 0.9 (w/w) PEG 400 or isopropyl myristate (IPM) in HFA 227 to 12 ml can was distributed in aluminium anodised cans and was stored 70 days at 50° C.

[2] = Fine particle dose of dexbudesonide solution compositions, Andersen Cascade Impactor; format: physicochemical; conditions: for MMAD: low volatility compound 0.9% (w/w); for FPF: Fine particle dose/Delivered dose × 100; for Delivered dose: ex actuator; for FPD: particles lower than 4.7 μm, average of 10 shots; for Metered dose: sum of delivered dose and actuator residue
Protocol: The fine particle dose (FPD: weight of particles having an aerodynamic diameter lower than 4.7 μm) of dexbudesonide solution compositions in HFA 134a or HFA 227, prepared following the examples 4 and 5, was determined.
The experiments were performed using the Andersen Cascade Impactor and the data obtained are average values from 10 shots.
The FPD gives a direct measure of the mass of particles within the specified size range and is closely related to the efficacy of the product.

[3] = Chemical stability of dexbudesonide HFA 134a composition of Example 4 in epoxy-phenol lacquered aluminium cans (HPLC, epimeric distribution); format: physicochemical
Protocol: A composition containing 48 mg of dexbudesonide (200 μg/dose), 15% (w/w) ethanol, 1.3% (w/w) glycerol in HFA 134a to 12 ml can was distributed in epoxy-phenol lacquered aluminium cans and was stored at 40° C.

[4] = flunisolide/ethanol/HFA compositions of WO 95/17195, Table 8 of that application; cited from earlier work
[5] = Chemical stability of flunisolide HFA 134a composition of Example 7 in cans of different types (percent drug remaining, HPLC); format: physicochemical
Protocol: A composition containing 60 mg of flunisolide (250 μg/dose), […], 1% (w/w) glycerol in HFA 134a to 12 ml/can was distributed in anodised aluminium, glass cans or in cans having different internal coatings and were stored for 41 days at 50° C.

[6] = as above; format: physicochemical; remark: listed apart in the source
[7] = Effect of different acids on chemical stability of the composition of Example 1 in epoxy-phenol resin (4) coated cans; format: physicochemical; conditions: epoxy-phenol (4) coated cans
Protocol: The effect of different acids on the chemical stability of the composition of Example 1 was studied.
The stability of the compositions was tested after 1, 2 and 5 months storage at 40° C. in epoxy-phenol resin (4) coated cans.

[8] = metered dose 30 μg, ethanol 5% (w/w), IPM 0.9% (w/w), t = 70 days at 50° C.
[9] = metered dose 30 μg, ethanol 5% (w/w), PEG 400 0.9% (w/w), t = 70 days at 50° C.
[10] = metered dose 50 μg, ethanol 8% (w/w), IPM 0.9% (w/w), t = 70 days at 50° C.
[11] = metered dose 50 μg, ethanol 8% (w/w), PEG 400 0.9% (w/w), t = 70 days at 50° C.
[12] = metered dose 70 μg, ethanol 7% (w/w), IPM 0.9% (w/w), t = 70 days at 50° C.
[13] = metered dose 70 μg, ethanol 7% (w/w), PEG 400 0.9% (w/w), t = 70 days at 50° C.
[14] = HFA 134a, 60 μg/shot, ethanol 8% (w/w), IPM 0.9% (w/w)
[15] = HFA 227, 63 μg/shot, ethanol 7% (w/w), IPM 0.9% (w/w)
[16] = HFA 227, 63 μg/shot, ethanol 7% (w/w), PEG 400 0.9% (w/w)
[17] = can: Anodised aluminum, t = 41 days at 50° C.
[18] = can: Epoxy phenol resin (2), t = 41 days at 50° C.
[19] = can: Epoxy phenol resin (3), t = 41 days at 50° C.
[20] = can: Anodised aluminum, t = 93 days (50° C. per title)
[21] = can: Epoxy phenol resin (1), t = 41 days at 50° C.
[22] = can: Epoxy phenol resin (1), t = 93 days (50° C. per title)
[23] = can: Epoxy phenol resin (2), t = 93 days (50° C. per title)
[24] = can: Epoxy phenol resin (3), t = 93 days (50° C. per title)

SMILES: CCC[C@@H]1O[C@@H]2C[C@H]3[C@@H]4CCC5=CC(=O)C=C[C@]5(C)[C@H]4[C@@H](O)C[C@]3(C)[C@]2(C(=O)CO)O1 [dexbudesonide]
epimeric distribution ([1]; Example 5 compositions, anodised aluminium cans, 70 days at 50° C.): no transfer from the 22R to the 22S epimer | % Residual dexbudesonide ([1]; metered dose 30 μg, ethanol 5% (w/w), IPM 0.9% (w/w), t = 0 days): 98.1% | % Residual dexbudesonide [1, 8]: 96.8% | % residual dexbudesonide relative to t = 0 [1, 8]: (98.7) % | % Residual dexbudesonide ([1]; metered dose 30 μg, ethanol 5% (w/w), PEG 400 0.9% (w/w), t = 0 days): 95.8% | % Residual dexbudesonide [1, 9]: 95.8% | % residual dexbudesonide relative to t = 0 [1, 9]: (100) % | % Residual dexbudesonide ([1]; metered dose 50 μg, ethanol 8% (w/w), IPM 0.9% (w/w), t = 0 days): 98.0% | % Residual dexbudesonide [1, 10]: 99.4% | % residual dexbudesonide relative to t = 0 [1, 10]: (101) % | % Residual dexbudesonide ([1]; metered dose 50 μg, ethanol 8% (w/w), PEG 400 0.9% (w/w), t = 0 days): 99.0% | % Residual dexbudesonide [1, 11]: 98.0% | % residual dexbudesonide relative to t = 0 [1, 11]: (98.9) % | % Residual dexbudesonide ([1]; metered dose 70 μg, ethanol 7% (w/w), IPM 0.9% (w/w), t = 0 days): 100.4% | % Residual dexbudesonide [1, 12]: 96.3% | % residual dexbudesonide relative to t = 0 [1, 12]: (96.0) % | % Residual dexbudesonide ([1]; metered dose 70 μg, ethanol 7% (w/w), PEG 400 0.9% (w/w), t = 0 days): 95.7% | % Residual dexbudesonide [1, 13]: 93.75% | % residual dexbudesonide relative to t = 0 [1, 13]: (98.0) % | MMAD ([2]; HFA 134a solution formulation, 14.4 mg/can (60 μg/shot), ethanol 8% (w/w)): 2.0 μm | FPF [2, 14]: 73.6% and 77.4% | Delivered dose [2, 14]: 54.2 µg and 50.9 µg | FPD [2, 14]: 39.9 µg and 39.4 µg | Metered dose [2, 14]: 57.9 µg and 53.2 µg | FPF [2, 15]: 75.5% | Delivered dose [2, 15]: 59.7 µg | FPD [2, 15]: 45.0 µg | Metered dose [2, 15]: 63.9 µg | FPF [2, 16]: 78.9% | Delivered dose [2, 16]: 61.5 µg | FPD [2, 16]: 48.5 µg | Metered dose [2, 16]: 65.5 µg | MMAD ([2]; HFA 227 solution formulation, 15.12 mg/can (63 μg/shot), ethanol 7% (w/w)): 2.0 μm | percent drug remaining ([3]; 200 μg/dose, 15% (w/w) ethanol, 1.3% (w/w) glycerol, HFA 134a, 8 months at 40° C., average of two tests): 95.4% | epimeric distribution ([3]; Example 4 composition, stored at 40° C.): no transfer from the 22R to the 22S epimer

% RESIDUAL FLUNISOLIDE ([5]; can: Anodised aluminum, t = 0): 101.6% | % RESIDUAL FLUNISOLIDE [5, 17]: 100.4% | % RESIDUAL FLUNISOLIDE RELATIVE TO t = 0 [5, 17]: (98.8) % | % RESIDUAL FLUNISOLIDE ([5]; can: Epoxy phenol resin (1), t = 0): 98.4% | % RESIDUAL FLUNISOLIDE ([5]; can: Epoxy phenol resin (2), t = 0): 101.9% | % RESIDUAL FLUNISOLIDE [5, 18]: 99.7% | % RESIDUAL FLUNISOLIDE RELATIVE TO t = 0 [5, 18]: (97.8) % | % RESIDUAL FLUNISOLIDE [5, 19]: 99.2% | % RESIDUAL FLUNISOLIDE [6, 20]: 100.7% | % RESIDUAL FLUNISOLIDE RELATIVE TO t = 0 [6, 20]: (99.1) % | % RESIDUAL FLUNISOLIDE [6, 21]: 99.2% | % RESIDUAL FLUNISOLIDE RELATIVE TO t = 0 [6, 21]: (101) % | % RESIDUAL FLUNISOLIDE [6, 22]: 101.4% | % RESIDUAL FLUNISOLIDE RELATIVE TO t = 0 [6, 22]: (103) % | % RESIDUAL FLUNISOLIDE [6, 23]: 101.9% | % RESIDUAL FLUNISOLIDE RELATIVE TO t = 0 [6, 23]: (100) % | % RESIDUAL FLUNISOLIDE ([6]; can: Epoxy phenol resin (3), t = 0): 101.7% | % RESIDUAL FLUNISOLIDE RELATIVE TO t = 0 [6, 19]: (97.5) % | % RESIDUAL FLUNISOLIDE [6, 24]: 101.2% | % RESIDUAL FLUNISOLIDE RELATIVE TO t = 0 [6, 24]: (99.6) % | % RESIDUAL FLUNISOLIDE ([6]; can: Glass type III, t = 93 days (50° C. per title)): 97.5%
SMILES: CC1(C)O[C@@H]2C[C@H]3[C@@H]4C[C@H](F)C5=CC(=O)C=C[C@]5(C)[C@H]4[C@@H](O)C[C@]3(C)[C@]2(C(=O)CO)O1 [flunisolide]
decomposition in containers [4]: decomposes only in plastic cans

SMILES: CC(C)[N+]1(C)[C@@H]2CC[C@H]1CC(OC(=O)C(CO)c1ccccc1)C2.[Br-] (some centres unmarked) [ipratropium bromide]
% RESIDUAL IPBr ([7]; acid: Ascorbic, t = 0): 119% | % RESIDUAL IPBr ([7]; acid: Ascorbic, t = 1 month at 40° C.): 113% | % RESIDUAL IPBr ([7]; acid: Ascorbic, t = 2 months at 40° C.): 112% | % RESIDUAL IPBr ([7]; acid: Ascorbic, t = 5 months at 40° C.): 110% | % RESIDUAL IPBr ([7]; acid: Citric (0.07% w/w), t = 1 month at 40° C.): 98% | % RESIDUAL IPBr ([7]; acid: Citric (0.3% w/w), t = 2 months at 40° C.): 100% | % RESIDUAL IPBr ([7]; acid: Citric (0.6% w/w), t = 0): 98% | % RESIDUAL IPBr ([7]; acid: Citric (0.6% w/w), t = 1 month at 40° C.): 98% | % RESIDUAL IPBr ([7]; acid: Hydrochloric (4 μl-1 N), t = 0): 101% | % RESIDUAL IPBr ([7]; acid: Hydrochloric (4 μl-1 N), t = 1 month at 40° C.): 100% | % RESIDUAL IPBr ([7]; acid: Hydrochloric (4 μl-1 N), t = 2 months at 40° C.): 104% | % RESIDUAL IPBr ([7]; acid: Hydrochloric (10 μl-1 N), t = 0): 101% | % RESIDUAL IPBr ([7]; acid: Hydrochloric (10 μl-1 N), t = 1 month at 40° C.): 98% | % RESIDUAL IPBr ([7]; acid: Hydrochloric (10 μl-1 N), t = 2 months at 40° C.): 98% | % RESIDUAL IPBr ([7]; acid: Hydrochloric (20 μl-1 N), t = 0): 100% | % RESIDUAL IPBr ([7]; acid: Hydrochloric (20 μl-1 N), t = 2 months at 40° C.): 98% | % RESIDUAL IPBr ([7]; acid: None, t = 2 months at 40° C.): 98%

From patent publication US7740463B2, “Pressurised metered dose inhalers (MDI)” (Chiesi Farmaceutici S.p.A., priority 1998, dated 2010)
